Each structure is given as a SMILES string. pIC50: −log10 of the molar value. Where two headings read alike, the source gives them in different places.

The assay deals with purified human, His-tagged PRC2 complex (Homo sapiens, UniProt O75530+Q15910). The assay is described as follows: Hot Spot HMT assay: inhibition of PRC2 enzymatic activity (transfer of tritiated methyl from SAM to core histone, filter binding). The format is biochemical. From the text:
The assay uses purified human, His-tagged PRC2 complex, including N-terminal His-tagged EZH2 enzyme, N-terminal Flag-tagged embryonic ectoderm development protein (EED), N-terminal His-tagged suppressor of zeste 12 (SUZ12), N-terminal His-tagged AEBP2, and N-terminal His-tagged RbAp48. In this assay, the transfer of the tritiated methyl group from radiolabeled S-adenosyl methionine (SAM) to purified core histone protein by EZH2 is quantitated after filtration to determine the activity of the core PRC2 complex in the presence and absence of compound.
The initial starting concentration for the serial dilutions of each compound was 1.0 µM. […] SAH (S-(5-adenosyl)-L-homocysteine) was used as a positive control for assay validation.
An aliquot of each serial dilution of test compound was added to deep 384 well plate using Acoustic Technology instrument (Echo 550, LabCyte) containing reaction buffer (50 mM Tris-HCl (pH 8.)), 0.01% Brij35, 1 mM EDTA, 1 mM DTT, 1 mM PMSF and 1% DMSO), 10 nM purified PRC2 complex and 0.05 mg/ml core histone H3 in a 5 µl volume. The reaction was mixed gently and then pre-incubated for 20 min at 30°C. The enzymatic reaction was initiated by adding 1 uM S-Adenosyl-L-[methyl - ^3H]methionine and incubated for 1 hr at 30°C. After 1 hr, the reaction product was detected using a filter binding method and the amount of tritiated H3 core histone was quantitated using a scintillation counter.

Where [1] appears, read: Inhibition of PRC2-mediated enzymatic activity, 10 nM PRC2 complex, 0.05 mg/ml core histone H3, 1 uM 3H-SAM, 1 hr at 30°C.

Sequence of purified human, His-tagged PRC2 complex (Q15910 whole entry): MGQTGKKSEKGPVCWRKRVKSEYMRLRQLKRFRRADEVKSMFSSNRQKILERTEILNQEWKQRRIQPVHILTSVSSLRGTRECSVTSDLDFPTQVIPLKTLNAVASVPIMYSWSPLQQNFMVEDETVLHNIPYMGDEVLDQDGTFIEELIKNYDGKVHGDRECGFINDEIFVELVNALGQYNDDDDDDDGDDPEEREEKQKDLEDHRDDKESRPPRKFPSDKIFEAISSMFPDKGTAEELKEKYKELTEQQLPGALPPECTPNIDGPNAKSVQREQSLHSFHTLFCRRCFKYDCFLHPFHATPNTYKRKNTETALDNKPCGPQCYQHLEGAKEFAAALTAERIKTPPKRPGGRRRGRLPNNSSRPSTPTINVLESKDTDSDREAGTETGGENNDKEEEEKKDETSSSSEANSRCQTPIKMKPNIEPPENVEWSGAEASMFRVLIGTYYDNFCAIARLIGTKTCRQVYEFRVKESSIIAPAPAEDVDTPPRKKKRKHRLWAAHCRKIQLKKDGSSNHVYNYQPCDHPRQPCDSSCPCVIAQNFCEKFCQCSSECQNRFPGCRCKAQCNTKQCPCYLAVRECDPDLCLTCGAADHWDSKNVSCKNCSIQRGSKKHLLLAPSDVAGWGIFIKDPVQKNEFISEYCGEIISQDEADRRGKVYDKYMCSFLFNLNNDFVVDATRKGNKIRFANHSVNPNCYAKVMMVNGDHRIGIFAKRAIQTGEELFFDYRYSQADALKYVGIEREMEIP
Sequence of purified human, His-tagged PRC2 complex (O75530 whole entry): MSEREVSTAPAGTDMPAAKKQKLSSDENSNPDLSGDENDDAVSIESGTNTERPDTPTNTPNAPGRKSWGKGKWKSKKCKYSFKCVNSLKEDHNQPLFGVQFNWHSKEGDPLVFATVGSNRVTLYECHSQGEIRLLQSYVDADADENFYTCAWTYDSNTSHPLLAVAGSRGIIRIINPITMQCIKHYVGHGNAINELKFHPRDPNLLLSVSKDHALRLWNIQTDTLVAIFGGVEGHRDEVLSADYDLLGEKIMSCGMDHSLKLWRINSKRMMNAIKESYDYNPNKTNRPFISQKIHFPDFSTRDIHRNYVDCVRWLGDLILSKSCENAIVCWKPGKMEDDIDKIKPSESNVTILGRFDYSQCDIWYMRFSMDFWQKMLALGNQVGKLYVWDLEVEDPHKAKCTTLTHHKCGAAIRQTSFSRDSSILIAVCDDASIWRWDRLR
Sequence of purified human, His-tagged PRC2 complex (Q15022 whole entry partner): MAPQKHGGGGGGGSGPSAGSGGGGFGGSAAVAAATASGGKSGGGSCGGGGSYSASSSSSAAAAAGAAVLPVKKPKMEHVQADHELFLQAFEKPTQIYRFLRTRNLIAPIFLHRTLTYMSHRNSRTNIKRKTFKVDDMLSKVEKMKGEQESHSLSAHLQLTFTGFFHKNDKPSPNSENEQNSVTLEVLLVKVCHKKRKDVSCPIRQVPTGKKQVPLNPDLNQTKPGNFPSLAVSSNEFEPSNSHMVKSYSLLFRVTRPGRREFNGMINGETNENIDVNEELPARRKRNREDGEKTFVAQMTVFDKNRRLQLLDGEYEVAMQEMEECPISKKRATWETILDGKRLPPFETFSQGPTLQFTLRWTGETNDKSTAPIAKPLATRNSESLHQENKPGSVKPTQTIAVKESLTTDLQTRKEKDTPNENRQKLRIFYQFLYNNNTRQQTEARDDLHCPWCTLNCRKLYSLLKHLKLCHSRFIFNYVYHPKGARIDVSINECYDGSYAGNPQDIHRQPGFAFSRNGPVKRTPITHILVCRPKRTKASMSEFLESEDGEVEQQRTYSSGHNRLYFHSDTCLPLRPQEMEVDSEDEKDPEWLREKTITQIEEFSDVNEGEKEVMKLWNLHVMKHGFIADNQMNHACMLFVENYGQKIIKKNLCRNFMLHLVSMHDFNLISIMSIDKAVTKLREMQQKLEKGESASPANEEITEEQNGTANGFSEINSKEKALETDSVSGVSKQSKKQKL
Sequence of purified human, His-tagged PRC2 complex (Q6ZN18 whole entry partner): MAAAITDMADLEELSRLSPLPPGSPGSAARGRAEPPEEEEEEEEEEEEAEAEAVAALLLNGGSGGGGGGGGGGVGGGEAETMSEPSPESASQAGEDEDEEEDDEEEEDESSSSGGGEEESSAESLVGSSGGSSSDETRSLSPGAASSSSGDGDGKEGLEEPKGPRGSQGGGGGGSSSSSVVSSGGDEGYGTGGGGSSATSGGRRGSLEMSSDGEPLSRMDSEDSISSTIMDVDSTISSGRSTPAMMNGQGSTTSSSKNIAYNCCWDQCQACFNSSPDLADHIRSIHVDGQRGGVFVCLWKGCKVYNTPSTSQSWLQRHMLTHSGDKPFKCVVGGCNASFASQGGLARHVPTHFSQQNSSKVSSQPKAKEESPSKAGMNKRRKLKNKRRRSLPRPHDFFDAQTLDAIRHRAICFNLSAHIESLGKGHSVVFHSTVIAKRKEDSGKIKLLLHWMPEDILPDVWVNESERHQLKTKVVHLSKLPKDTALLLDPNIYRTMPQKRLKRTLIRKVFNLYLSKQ
Sequence of purified human, His-tagged PRC2 complex (Q09028 whole entry partner): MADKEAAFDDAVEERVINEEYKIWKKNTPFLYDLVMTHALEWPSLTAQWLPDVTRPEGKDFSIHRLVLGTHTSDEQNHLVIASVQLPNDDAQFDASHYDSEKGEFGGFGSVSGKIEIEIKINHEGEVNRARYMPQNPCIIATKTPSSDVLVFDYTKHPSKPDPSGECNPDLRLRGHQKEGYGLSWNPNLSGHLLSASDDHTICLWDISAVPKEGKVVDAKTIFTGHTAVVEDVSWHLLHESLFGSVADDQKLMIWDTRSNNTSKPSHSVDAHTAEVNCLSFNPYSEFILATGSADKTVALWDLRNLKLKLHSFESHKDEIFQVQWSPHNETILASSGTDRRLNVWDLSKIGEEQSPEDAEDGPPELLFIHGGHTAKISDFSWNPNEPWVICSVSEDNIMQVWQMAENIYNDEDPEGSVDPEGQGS

As a reminder, the pIC50 is the IC50 on a negative log10 scale, so that one unit is a factor of ten. Lower therefore signals a large IC50. Under setting [1], `COc1cncc(-c2cnc(NCc3c(F)ccc4c3CCO4)n3cc(C#N)nc23)c1` [Example 93, 5-(((5-fluoro-2,3-dihydrobenzofuran-4-yl)methyl)amino)-8-(5-methoxypyridin-3-yl)imidazo[1,2-c]pyrimidine-2-carbonitrile] showed a pIC50 of 6.30 to 7.00.
Still for that read-out and setting: in the case of `COc1ccc(-c2cnc(NCc3c(F)ccc4c3CCO4)n3cc(C#N)nc23)cn1` [Example 94, 5-(((5-fluoro-2,3-dihydrobenzofuran-4-yl)methyl)amino)-8-(6-methoxypyridin-3-yl)imidazo[1,2-c]pyrimidine-2-carbonitrile] it was above 7.00; in that of `N#Cc1cncc(-c2cnc(NCc3c(F)ccc4c3CCO4)n3cc(C#N)nc23)c1` [Example 95, 8-(5-cyanopyridin-3-yl)-5-(((5-fluoro-2,3-dihydrobenzofuran-4-yl)methyl)amino)imidazo[1,2-c]pyrimidine-2-carbonitrile], above 7.00; in that of `CC(C)n1cc(-c2cnc(NCc3c(F)ccc4c3CCO4)n3cc(C#N)nc23)cn1` [Example 99, 5-(((5-fluoro-2,3-dihydrobenzofuran-4-yl)methyl)amino)-8-(1-isopropyl-1H-pyrazol-4-yl)imidazo[1,2-c]pyrimidine-2-carbonitrile], above 7.00.
On the same count and under the same terms, in the case of `N#Cc1cn2c(NCc3c(F)ccc4c3CCO4)ncc(-c3cnn(Cc4cccnc4)c3)c2n1` [Example 101, 5-(((5-fluoro-2,3-dihydrobenzofuran-4-yl)methyl)amino)-8-(1-(pyridin-3-ylmethyl)-1H-pyrazol-4-yl)imidazo[1,2-c]pyrimidine-2-carbonitrile] it was 6.30 to 7.00.
With `CN(C)CCn1cc(-c2cnc(NCc3c(F)ccc4c3CCO4)n3cc(C#N)nc23)cn1` [Example 102, 8-(1-(2-(dimethylamino)ethyl)-1H-pyrazol-4-yl)-5-(((5-fluoro-2,3-dihydrobenzofuran-4-yl)methyl)amino)imidazo[1,2-c]pyrimidine-2-carbonitrile], the pIC50 under setting [1] was 6.30 to 7.00.
On the same count and under the same terms, in the case of `CN(C)CCCn1cc(-c2cnc(NCc3c(F)ccc4c3CCO4)n3cc(C#N)nc23)cn1` [Example 103, 8-(1-(3-(dimethylamino)propyl)-1H-pyrazol-4-yl)-5-(((5-fluoro-2,3-dihydrobenzofuran-4-yl)methyl)amino)imidazo[1,2-c]pyrimidine-2-carbonitrile] it was 6.30 to 7.00.
Same read-out and setting: in the case of `Cc1n[nH]c(C)c1-c1cnc(NCc2c(F)ccc3c2CCO3)n2cc(C#N)nc12` [Example 104, 8-(3,5-dimethyl-1H-pyrazol-4-yl)-5-(((5-fluoro-2,3-dihydrobenzofuran-4-yl)methyl)amino)imidazo[1,2-c]pyrimidine-2-carbonitrile] it was below 6.30.
Still for that read-out and setting: in the case of `N#Cc1cn2c(NCc3c(F)ccc4c3CCO4)ncc(-c3cnn(C4CCOC4)c3)c2n1` (centres unmarked) [Example 107, 5-(((5-fluoro-2,3-dihydrobenzofuran-4-yl)methyl)amino)-8-(1-(tetrahydrofuran-3-yl)-1H-pyrazol-4-yl)imidazo[1,2-c]pyrimidine-2-carbonitrile] it was 6.30 to 7.00; in that of `N#Cc1cn2c(NCc3c(F)ccc4c3CCO4)ncc(-c3cnccc3Cl)c2n1` [Example 109, 8-(4-chloropyridin-3-yl)-5-(((5-fluoro-2,3-dihydrobenzofuran-4-yl)methyl)amino)imidazo[1,2-c]pyrimidine-2-carbonitrile], above 7.00.
`N#Cc1cn2c(NCc3c(F)ccc4c3CCO4)ncc(-c3cnn(C4CCOCC4)c3)c2n1` [Example 120, 5-(((5-fluoro-2,3-dihydrobenzofuran-4-yl)methyl)amino)-8-(1-(tetrahydro-2H-pyran-4-yl)-1H-pyrazol-4-yl)imidazo[1,2-c]pyrimidine-2-carbonitrile] showed a pIC50 under setting [1] below 6.30.
`COc1cc(-c2cnc(NCc3c(F)ccc4c3CCO4)n3cc(C#N)nc23)c(OC)cn1` [Example 125, 8-(2,5-dimethoxypyridin-4-yl)-5-(((5-fluoro-2,3-dihydrobenzofuran-4-yl)methyl)amino)imidazo[1,2-c]pyrimidine-2-carbonitrile] had a pIC50 under setting [1] above 7.00.
`N#Cc1cn2c(NCc3c(F)ccc4c3CCO4)ncc(-c3ccc(C(F)(F)F)nc3)c2n1` [Example 126, 5-(((5-fluoro-2,3-dihydrobenzofuran-4-yl)methyl)amino)-8-(6-(trifluoromethyl)pyridin-3-yl)imidazo[1,2-c]pyrimidine-2-carbonitrile]: the pIC50 under setting [1] was 6.30 to 7.00.
In turn, `CC(=O)Nc1cc(-c2cnc(NCc3c(F)ccc4c3CCO4)n3cc(C#N)nc23)ccn1` [Example 131, N-(4-(2-cyano-5-(((5-fluoro-2,3-dihydrobenzofuran-4-yl)methyl)amino)imidazo[1,2-c]pyrimidin-8-yl)pyridin-2-yl)acetamide] had a pIC50 under setting [1] above 7.00.
Take `N#Cc1cn2c(NCc3c(F)ccc4c3CCO4)ncc(-c3cnc(N)c(C(F)(F)F)c3)c2n1` [Example 134, 8-(6-amino-5-(trifluoromethyl)pyridin-3-yl)-5-(((5-fluoro-2,3-dihydrobenzofuran-4-yl)methyl)amino)imidazo[1,2-c]pyrimidine-2-carbonitrile]: the pIC50 under setting [1] was 6.30 to 7.00.
On the same count and under the same terms, in the case of `N#Cc1cn2c(NCc3c(F)ccc4c3CCO4)ncc(-c3ccc(N4CCCCC4)nc3)c2n1` [Example 135, 5-(((5-fluoro-2,3-dihydrobenzofuran-4-yl)methyl)amino)-8-(6-(piperidin-1-yl)pyridin-3-yl)imidazo[1,2-c]pyrimidine-2-carbonitrile] it was above 7.00; in that of `N#Cc1cn2c(NCc3c(F)ccc4c3CCO4)ncc(C3CCOCC3)c2n1` [Example 141, 5-(((5-fluoro-2,3-dihydrobenzofuran-4-yl)methyl)amino)-8-(tetrahydro-2H-pyran-4-yl)imidazo[1,2-c]pyrimidine-2-carbonitrile], below 6.30; in that of `N#Cc1cn2c(NCc3c(F)ccc4c3CCO4)ncc(-c3ccc(CN4CCC(O)C4)cc3)c2n1` (centres unmarked) [Example 151, 5-(((5-fluoro-2,3-dihydrobenzofuran-4-yl)methyl)amino)-8-(4-((3-hydroxypyrrolidin-1-yl)methyl)phenyl)imidazo[1,2-c]pyrimidine-2-carbonitrile], above 7.00.
Same read-out and setting: in the case of `Cc1cc(-c2cnc(NCc3c(F)ccc4c3C(O)CO4)n3cc(C#N)nc23)n(C)n1` (centres unmarked) [Example 155, 8-(1,3-dimethyl-1H-pyrazol-5-yl)-5-(((5-fluoro-3-hydroxy-2,3-dihydrobenzofuran-4-yl)methyl)amino)imidazo[1,2-c]pyrimidine-2-carbonitrile] it was above 7.00.
Compound `CN(C)Cc1cc(-c2cnc(NCc3c(F)ccc4c3CCO4)n3cc(C#N)nc23)n(C)n1` [Example 210, 8-(3-((dimethylamino)methyl)-1-methyl-1H-pyrazol-5-yl)-5-(((5-fluoro-2,3-dihydrobenzofuran-4-yl)methyl)amino)imidazo[1,2-c]pyrimidine-2-carbonitrile] had a pIC50 above 7.00.
Still for that read-out and setting: in the case of `CNCc1cc(-c2cnc(NCc3c(F)ccc4c3CCO4)n3cc(C#N)nc23)n(C)n1` [Example 211, 5-(((5-fluoro-2,3-dihydrobenzofuran-4-yl)methyl)amino)-8-(1-methyl-3-((methylamino)methyl)-1H-pyrazol-5-yl)imidazo[1,2-c]pyrimidine-2-carbonitrile] it was above 7.00.
For `CN(C)Cc1ncc(-c2cnc(NCc3c(F)ccc4c3CCO4)n3cc(C#N)nc23)cn1` [Example 216, 8-(2-((dimethylamino)methyl)pyrimidin-5-yl)-5-(((5-fluoro-2,3-dihydrobenzofuran-4-yl)methyl)amino)imidazo[1,2-c]pyrimidine-2-carbonitrile], under setting [1], the pIC50 was above 7.00.
Compound `CN1CCC1c1ccc(-c2cnc(NCc3c(F)ccc4c3CCO4)n3cc(C#N)nc23)cc1` (centres unmarked) [Example 221, 5-(((5-fluoro-2,3-dihydrobenzofuran-4-yl)methyl)amino)-8-(4-(1-methylazetidin-2-yl)phenyl)imidazo[1,2-c]pyrimidine-2-carbonitrile] showed a pIC50 under setting [1] above 7.00.
`N#Cc1cn2c(NCc3c(F)ccc4c3CCO4)ncc(-c3ccc(C4COCCN4)cc3)c2n1` (centres unmarked) [Example 225, 5-(((5-fluoro-2,3-dihydrobenzofuran-4-yl)methyl)amino)-8-(4-(morpholin-3-yl)phenyl)imidazo[1,2-c]pyrimidine-2-carbonitrile] had a pIC50 under setting [1] above 7.00.
Still for that read-out and setting: in the case of `N#Cc1cn2c(NCc3c(F)ccc4c3CCO4)ncc(-c3ccnn3CCO)c2n1` [Example 231, 5-(((5-fluoro-2,3-dihydrobenzofuran-4-yl)methyl)amino)-8-(1-(2-hydroxyethyl)-1H-pyrazol-5-yl)imidazo[1,2-c]pyrimidine-2-carbonitrile] it was 6.30 to 7.00; in that of `N#Cc1cn2c(NCc3c(F)ccc4c3CCO4)ncc(-c3n[nH]cc3Br)c2n1` [Example 232, 8-(4-bromo-1H-pyrazol-3-yl)-5-(((5-fluoro-2,3-dihydrobenzofuran-4-yl)methyl)amino)imidazo[1,2-c]pyrimidine-2-carbonitrile], 6.30 to 7.00.

The values are drawn from patent EP4043466B1, “PRC2 INHIBITORS” (Mirati Therapeutics, Inc., priority 2018, dated 2019).
